compound: CC1(C)CCC(CN2CCN(c3ccc(C(=O)NS(=O)(=O)c4ccc(NCC5CCOCC5)c([N+](=O)[O-])c4)c(Oc4cnc5[nH]ccc5c4)c3)CC2)=C(c2ccc(Cl)cc2)C1 [Venetoclax] + NC(=O)Nc1cc(-c2cccc(F)c2)sc1C(=O)N[C@H]1CCCNC1 [AZD7762] (partner 0.2 µM); assay: relative viability (nuclei count vs DMSO), 5 days (fraction); higher = more cells survive; settings: first compound 0.01 µM
Method in brief: (§1)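 Relative viability is defined as nuclei in treated wells over nuclei in vehicle wells. Duplicate plates were run and medians reported. Lung cancer cell lines in 1536-well plates were dosed by pin tool one day after seeding, with one drug or with a fixed anchor-drug dose plus five library-drug doses (not always all listed) in √10 steps, and nuclei were counted after 5 days.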

Cell Line	relative viability
EKVX	0.698
LCLC-103H	0.837
NCI-H1651	0.505
NCI-H1944	0.74
ABC-1	0.631
NCI-H358	0.338
NCI-H727	0.592

same assay, conditions: first compound 0.03162 µM

Cell Line	relative viability
EKVX	0.766
LCLC-103H	0.737
NCI-H1651	0.481
NCI-H1944	0.573
ABC-1	0.955
NCI-H358	0.527
NCI-H727	0.769

same assay, conditions: first compound 0.1 µM

Cell Line	relative viability
EKVX	0.743
LCLC-103H	0.809
NCI-H1651	0.486
NCI-H1944	0.429
ABC-1	0.929
NCI-H358	0.556
NCI-H727	0.423

same assay, conditions: first compound 0.3162 µM

Cell Line	relative viability
EKVX	0.695
LCLC-103H	0.817
NCI-H1651	0.428
NCI-H1944	0.479
ABC-1	0.888
NCI-H358	0.714
NCI-H727	0.648

same assay, conditions: first compound 1 µM

Cell Line	relative viability
EKVX	0.671
LCLC-103H	0.734
NCI-H1651	0.386
NCI-H1944	0.468
ABC-1	0.878
NCI-H358	0.558
NCI-H727	0.604

compound: CC1(C)CCC(CN2CCN(c3ccc(C(=O)NS(=O)(=O)c4ccc(NCC5CCOCC5)c([N+](=O)[O-])c4)c(Oc4cnc5[nH]ccc5c4)c3)CC2)=C(c2ccc(Cl)cc2)C1 [Venetoclax] + COc1cc2c(Oc3ccc(NC(=O)C4(C(=O)Nc5ccc(F)cc5)CC4)cc3F)ccnc2cc1OCCCN1CCOCC1 [Foretinib] (partner 0.25 µM); assay: as above; settings: first compound 0.01 µM
Method in brief: as §1

Cell Line	relative viability
EKVX	0.657
LCLC-103H	0.758
NCI-H1651	0.876
NCI-H1944	1.06
ABC-1	0.867
NCI-H358	0.69
NCI-H727	1.16

same assay, conditions: first compound 0.03162 µM

Cell Line	relative viability
EKVX	1.24
LCLC-103H	0.782
NCI-H1651	0.787
NCI-H1944	0.904
ABC-1	1.22
NCI-H358	0.66
NCI-H727	0.719

same assay, conditions: first compound 0.1 µM

Cell Line	relative viability
EKVX	0.332
LCLC-103H	0.698
NCI-H1651	0.834
NCI-H1944	0.847
ABC-1	0.976
NCI-H358	0.694
NCI-H727	0.834

same assay, conditions: first compound 0.3162 µM

Cell Line	relative viability
EKVX	0.795
LCLC-103H	0.767
NCI-H1651	0.823
NCI-H1944	0.911
ABC-1	0.961
NCI-H358	0.695
NCI-H727	1.08

same assay, conditions: first compound 1 µM

Cell Line	relative viability
EKVX	0.788
LCLC-103H	0.801
NCI-H1651	0.808
NCI-H1944	0.912
ABC-1	0.922
NCI-H358	0.638
NCI-H727	0.884

compound: CC1(C)CCC(CN2CCN(c3ccc(C(=O)NS(=O)(=O)c4ccc(NCC5CCOCC5)c([N+](=O)[O-])c4)c(Oc4cnc5[nH]ccc5c4)c3)CC2)=C(c2ccc(Cl)cc2)C1 [Venetoclax] + Cc1cc(Nc2cc(N3CCN(C)CC3)nc(Sc3ccc(NC(=O)C4CC4)cc3)n2)n[nH]1 [Tozasertib] (partner 0.1 µM); assay: as above; settings: first compound 0.01 µM
Method in brief: as §1

Cell Line	relative viability
EKVX	0.403
LCLC-103H	0.575
NCI-H1651	0.751
NCI-H1944	0.267
ABC-1	0.16
NCI-H358	0.117
NCI-H727	0.765

same assay, conditions: first compound 0.03162 µM

Cell Line	relative viability
EKVX	0.392
LCLC-103H	0.396
NCI-H1651	0.681
NCI-H1944	0.246
ABC-1	0.17
NCI-H358	0.0943
NCI-H727	0.61

same assay, conditions: first compound 0.1 µM

Cell Line	relative viability
EKVX	0.435
LCLC-103H	0.36
NCI-H1651	0.636
NCI-H1944	0.238
ABC-1	0.178
NCI-H358	0.115
NCI-H727	0.496

same assay, conditions: first compound 0.3162 µM

Cell Line	relative viability
EKVX	0.324
LCLC-103H	0.51
NCI-H1651	0.639
NCI-H1944	0.273
ABC-1	0.156
NCI-H358	0.0994
NCI-H727	0.58

same assay, conditions: first compound 1 µM

Cell Line	relative viability
EKVX	0.309
LCLC-103H	0.454
NCI-H1651	0.599
NCI-H1944	0.228
ABC-1	0.219
NCI-H358	0.102
NCI-H727	0.58

compound: Cn1cnc2c(F)c(Nc3ccc(Br)cc3Cl)c(C(=O)NOCCO)cc21 [Selumetinib] + Cc1nc(NC(=O)N2CCC[C@H]2C(N)=O)sc1-c1ccnc(C(C)(C)C(F)(F)F)c1 [Alpelisib] (partner 2 µM); assay: as above; settings: first compound 0.02 µM
Method in brief: as §1

Cell Line	relative viability
EKVX	0.678
LCLC-103H	0.851
NCI-H1651	0.779
NCI-H1944	0.71
ABC-1	0.826
NCI-H358	0.645
NCI-H727	0.309

same assay, conditions: first compound 0.06325 µM

Cell Line	relative viability
EKVX	0.711
LCLC-103H	0.917
NCI-H1651	0.899
NCI-H1944	0.677
ABC-1	0.743
NCI-H358	0.472
NCI-H727	0.225

same assay, conditions: first compound 0.2 µM

Cell Line	relative viability
EKVX	0.61
LCLC-103H	0.841
NCI-H1651	0.975
NCI-H1944	0.594
ABC-1	0.852
NCI-H358	0.39
NCI-H727	0.253

same assay, conditions: first compound 0.6325 µM

Cell Line	relative viability
EKVX	0.448
LCLC-103H	0.874
NCI-H1651	0.828
NCI-H1944	0.52
ABC-1	0.643
NCI-H358	0.305
NCI-H727	0.202
